System: aortal, smooth vascular muscle cells
Assay: inhibition of the growth of aortal, smooth vascular muscle cells
Type: cell-based, human
Details: pharmacologically active even in the smallest concentrations of active substance
Description: This effect already occurs starting at 1 to 100 nM, preferably 5 to 50 nM, so that already extremely low local concentrations are sufficient for an effective inhibition of restenosis in the region of an implant. This virtually precludes broader side-effects.

C/C=C/[C@@H]1O[C@H]([C@H](O)/C=C/C=C(\C)C[C@@H](C)/C=C(C)\C=C\[C@H]2CC=CC(=O)O2)C[C@@H](O)[C@@H]1C [Ratjadone]
potency in first experiments: particularly potent

From patent publication US20070020306A1, “Endovascular implant with an at least sectional active coating made of radjadone and/or a ratjadone derivative” (priority 2003, published 2007)
